Our source for the IC50 and microsomal CLint values is patent US12473295B2, “Substituted straight chain spiro derivatives” (Janssen Pharmaceutica NV, priority 2019, dated 2025).

Molecules are shown by their SMILES. Where a name gives a salt, the structure may show the parent alone.

The subject of data set [1] is OCI-AML3 cells. As to the kind of experiment: Proliferation assay (spheroid growth, 8 days), OCI-AML3. The format is cell-based, human. Particulars: Homo sapiens, OCI-AML-3, […], OCI-AML3, 8 days. A digest of the protocol:
(§1)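 IC50 values derive from day-8 spheroid confluence, normalized between DMSO-treated wells and the highest dose of a reference compound, fitted with a variable slope. Cells grew 8 days at 37° C under a compound concentration series in 0.3% DMSO.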

The subject of data set [2] is MOLM14 cells. In words: Proliferation assay (spheroid growth, 8 days), MOLM14.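 Also: spheroid size read as confluence by live-cell imaging, compounds added at a range of concentrations with 0.3% DMSO, DMSO-treated wells = 0%, highest reference dose = low control.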 The settings on record: Homo sapiens, MOLM-14, […], MOLM14, 8 days; read-out: spheroid assay_OneTime MOLM14 IC50. The format is cell-based, human.
Data set [3] deals with KO-52 cells. As to the kind of experiment: Proliferation assay (spheroid growth, 8 days), KO-52 control cell line. The format is cell-based, human. Particulars: Homo sapiens, […], read-out: spheroid assay_OneTime KO-52 IC50. A digest of the protocol:
as §1

The target in data set [4] is menin/MLL (terbium chelate-labeled menin, FITC-MBM1 peptide) (Homo sapiens (Human), UniProt O00255). In words: Menin/MLL homogenous time-resolved fluorescence (HTRF) assay.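 Also: IC50 from percent inhibition of HTRF signal, normalized between wells without competitor and wells with a saturating competitor that displaces FITC-MBM1 from His-tagged menin.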 The format is binding. The settings on record: HTRF-30 min incubation IC50, 30 min incubation. On the technique in general: In TR-FRET formats the signal depends on donor and acceptor labels being close together.

The nature of data set [5]: Metabolic stability in human liver microsomes. The format is in vitro ADME. Particulars: human liver microsomes 0.5 mg/mL, 1 μM test compound, pH 7.4; read-out: Human LM Clint. The method, then:
4) Metabolic Stability in Human/Mouse Liver Microsomes
The objective of this study is to measure in vitro metabolic stability of test compound(s) in human and mouse liver microsomes and provide quantitative information on the rate of metabolic turnover (i.e. determination of the apparent intrinsic clearance of test).
Test items were prepared at a stock concentration of 10 mM in DMSO. For determination of metabolic turnover, a final working solution was prepared by adding 2 μL of 10 mM DMSO stock solution for test compound or positive control compounds to 198 μL of acetonitrile (100 μM final concentration).
Incubations were performed as follows: First, liver microsomes were thawed on ice and a master solution containing liver microsomes in 100 mM PBS (phosphate-buffered saline) at pH 7.4 is prepared. Next, the liver microsomes solution was added to the incubation plates and 10 mM NADPH (Nicotinamide-adenine dinucleotide phosphate) was added (MW: 833.4 g/mol; Roche Diagnostics GmbH, Germany. Dissolved in phosphate buffer (100 mmol/L, pH 7.4)). The mixture was mixed for 10 seconds and pre-warmed in the incubation plate at 37° C. for 10 minutes. The metabolic reaction was initiated with the addition of 5 μL of the 100 μM working solution for test compound or positive control compounds to incubation plate (final test item concentration=1 μM). The reaction final mixture should contain 1 mM NADPH, 0.5 mg/mL microsomes protein and 1 μM test compound or positive control compound in 100 mM PBS at pH 7.4. The percentage of organic solvent in incubation mixture is 1% with DMSO ≤0.02%.
The reaction was quenched by transferring 50 μL of the incubated mixture at selected time points into the quenching plate containing 200 μL of cold methanol. After sampling of all the timepoints the quenching plate was centrifuged at 4000 rpm for 40 minutes to precipitate protein. A total of 90 μL of the supernatant was transferred to an analysis plate and ultra-pure H2O water is added into each well for LC/MS/MS analysis. All incubations and analysis were performed in duplicate.
All calculations were carried out using Microsoft Excel. The slope value, k, was determined by linear regression of the natural logarithm of the remaining percentage of the parent drug vs. incubation time curve.
The in vitro half-life (in vitro tin) was determined from the slope value: in vitro t1/2=−(0.693/k)
Conversion of the in vitro tin (in min) into the in vitro intrinsic clearance (in vitro CLint, in μL/min/mg proteins) was done using the following equation: […]
(Liver microsomes are vesicles of endoplasmic reticulum, rich in cytochrome P450 enzymes.)

Data set [6] concerns MEIS1 mRNA. As to the kind of experiment: MEIS1 mRNA expression assay (Quantigene Singleplex) in MOLM14 cells.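 Also: MEIS1 transcript levels read by probe hybridization and normalized to RPL28 mRNA, with IC50 fitted to fold changes across a rising compound concentration series.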 The format is cell-based, human. The settings on record: Homo sapiens, MOLM-14, 48 h, 48 hours incubation.
Data set [7] in a line: Metabolic stability in mouse liver microsomes. The format is in vitro ADME. Particulars: mouse liver microsomes 0.5 mg/mL, 1 μM test compound, pH 7.4; read-out: Mouse LM Clint.

Sequence of menin/MLL (terbium chelate-labeled menin, FITC-MBM1 peptide) (O00255 other isoform, or with tags, fused parts or gaps): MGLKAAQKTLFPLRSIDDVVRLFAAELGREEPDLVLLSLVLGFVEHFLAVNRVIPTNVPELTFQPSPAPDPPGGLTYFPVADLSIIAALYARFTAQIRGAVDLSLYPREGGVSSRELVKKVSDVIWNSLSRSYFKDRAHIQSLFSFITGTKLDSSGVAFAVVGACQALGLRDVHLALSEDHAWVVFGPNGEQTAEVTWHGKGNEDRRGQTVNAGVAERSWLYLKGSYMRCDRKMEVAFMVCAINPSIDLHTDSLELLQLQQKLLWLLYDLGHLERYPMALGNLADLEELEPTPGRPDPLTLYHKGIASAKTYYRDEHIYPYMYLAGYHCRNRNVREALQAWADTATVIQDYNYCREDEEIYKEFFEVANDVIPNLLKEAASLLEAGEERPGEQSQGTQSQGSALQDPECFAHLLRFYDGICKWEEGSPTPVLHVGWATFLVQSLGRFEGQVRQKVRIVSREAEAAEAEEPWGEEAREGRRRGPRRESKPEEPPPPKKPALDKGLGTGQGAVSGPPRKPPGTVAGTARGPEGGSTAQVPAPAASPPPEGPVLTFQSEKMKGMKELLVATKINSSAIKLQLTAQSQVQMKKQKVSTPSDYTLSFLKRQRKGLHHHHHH

Usually IC50 stands for the concentration that inhibits the measured activity by half. Take `CC(C)[C@@H](CCC(C)(C)N)N1CC2(CCN(c3ncnnc3Oc3ccc(F)cc3-c3cncnc3C3CC3)C2)C1` (single isomer, unassigned) [Compound 37, (*R)-5-(6-(6-(2-(4-cyclopropylpyrimidin-5-yl)-4-fluorophenoxy)-1,2,4-triazin-5-yl)-2,6-diazaspiro[3.4]octan-2-yl)-2,6-dimethylheptan-2-amine]: the IC50 in data set [1] was 430 nM; in data set [2], 40 nM; in data set [3], more than 15000 nM; in data set [4], 0.12 nM; in data set [6] it was 39 nM. Moreover, the microsomal CLint at 1 μM in data set [5] and in data set [7] was less than 7.5 µL/min/mg throughout.
As to `COCCNCCC[C@H](C(C)C)N1CC2(CCN(c3ncnnc3Oc3ccc(F)cc3C(=O)N(C(C)C)C(C)C)C2)C1` (single isomer, unassigned) [Compound 99, (*R)-5-fluoro-N,N-isopropyl-2-((5-(2-(6-((2-methoxyethyl)amino)-2-methylhexan-3-yl)-2,6-diazaspiro[3.4]octan-6-yl)-1,2,4-triazin-6-yl)oxy)benzamide oxalate], the IC50 in data set [1] came to 82 nM; in data set [2] it was 8.5 nM; in data set [3], 11500 nM; in data set [4], 0.2 nM; in data set [6] it was 26 nM. In addition, the microsomal CLint at 1 μM in data set [5] came to 27 µL/min/mg; in data set [7] it was 13 µL/min/mg.
For the compound `CCN(C(=O)c1cc(F)ccc1Oc1nncnc1N1CCC2(C1)CN([C@H](CCCN)C(C)C)C2)C(C)C` [Compound 1, (R)-2-((5-(2-(6-amino-2-methylhexan-3-yl)-2,6-diazaspiro[3.4]octan-6-yl)-1,2,4-triazin-6-yl)oxy)-N-ethyl-5-fluoro-N-isopropylbenzamide formate], the IC50 in data set [1] is 170 nM; in data set [2], 230 nM; in data set [3] it was more than 15000 nM; in data set [4], 0.13 nM; in data set [6] it was 75 nM. Also, the microsomal CLint at 1 μM in data set [5] is less than 7.5 µL/min/mg; in data set [7], 21 µL/min/mg.
In the case of `CCN(C(=O)c1cc(F)ccc1Oc1nncnc1N1CCC2(C1)CN([C@H](CCCNCC(OC)OC)C(C)C)C2)C(C)C.O=C(O)/C=C/C(=O)O` [Compound 104, (R)-2-((5-(2-(6-((2,2-dimethoxyethyl)amino)-2-methylhexan-3-yl)-2,6-diazaspiro[3.4]octan-6-yl)-1,2,4-triazin-6-yl)oxy)-N-ethyl-5-fluoro-N-isopropylbenzamide fumarate], the IC50 in data set [1] stood at 150 nM; in data set [2] it was 6.7 nM; in data set [3] it was 10700 nM; in data set [4], 0.074 nM; in data set [6], 15 nM. Also, the microsomal CLint at 1 μM in data set [5] is 19 µL/min/mg; in data set [7], less than 7.5 µL/min/mg.
In the case of `CCN(C(=O)c1cc(F)ccc1Oc1nncnc1N1CCC2(C1)CN([C@H](CCCN[C@H](C)COC)C(C)C)C2)C(C)C.O=C(O)/C=C/C(=O)O` [Compound 112, N-ethyl-5-fluoro-N-isopropyl-2-(5(2-((R)-6-(((R)-1-methoxypropan-2-yl)amino)-2-methylhexan-3-yl)-2,6-diazaspiro[3.4]octan-6-yl)-1,2,4-triazin-6-yl)oxy)benzamide fumarate], the IC50 in data set [1] is 81 nM; in data set [2], 9.8 nM; in data set [3], more than 15000 nM; in data set [4] it was 0.049 nM; in data set [6], 9 nM. Further, the microsomal CLint at 1 μM in data set [5] was 17 µL/min/mg; in data set [7], less than 7.5 µL/min/mg.
Take `CCN(C(=O)c1cc(F)ccc1Oc1nncnc1N1CCC2(C1)CN([C@H](CCCNCCC(F)F)C(C)C)C2)C(C)C.O=C(O)/C=C/C(=O)O` [Compound 114, (R)-2-(5-(2-(6-((3,3-difluoropropyl)amino)-2-methylhexan-3-yl)-2,6-diazaspiro[3.4]octan-6-yl)-1,2,4-triazin-6-yl)oxy)-N-ethyl-5-fluoro-N-isopropylbenzamide fumarate]: the IC50 in data set [1] was 42 nM; in data set [2], 14 nM; in data set [3], 1690 nM; in data set [4], 0.05 nM; in data set [6], 22 nM. Besides, the results for the microsomal CLint at 1 μM in data set [5] and in data set [7] were 26 µL/min/mg and 15 µL/min/mg, respectively.
In the case of `CCN(C(=O)c1cc(F)ccc1Oc1nncnc1N1CCC2(C1)CN([C@H](CCCN(C)CCNC(C)=O)C(C)C)C2)C(C)C.O=C(O)/C=C/C(=O)O` [Compound 245, (R)-2-((5-(2-(6-((2-acetamidoethyl)(methyl)amino)-2-methylhexan-3-yl)-2,6-diazaspiro[3.4]octan-6-yl)-1,2,4-triazin-6-yl)oxy)-N-ethyl-5-fluoro-N-isopropylbenzamide fumarate], the IC50 in data set [1] is 430 nM; in data set [2], 73 nM; in data set [3], more than 15000 nM; in data set [4] it was 0.26 nM; in data set [6], 140 nM. Also, the figures for the microsomal CLint at 1 μM in data set [5] and in data set [7] were 18 µL/min/mg and less than 7.5 µL/min/mg, respectively.
Consider `CCN(C(=O)c1cc(F)ccc1Oc1nncnc1N1CCC2(C1)CN([C@H](CCCN(C)CCC(=O)N(C)C)C(C)C)C2)C(C)C` [Compound 246, (R)-2-((5-(2-(6-((3-(dimethylamino)-3-oxopropyl)(methyl)amino)-2-methylhexan-3-yl)-2,6-diazaspiro[3.4]octan-6-yl)-1,2,4-triazin-6-yl)oxy)-N-ethyl-5-fluoro-N-isopropylbenzamide formate], for which the IC50 is 380 nM in data set [1]; 60 nM in data set [2]; more than 15000 nM in data set [3]; 0.063 nM in data set [4]; 180 nM in data set [6].
